Holding throughout (format): cell-based
One assay relates to Interleukin 1β (IL-1β). Put plainly: In vitro model of human inflammation: ELISA of IL-1β in supernatants. As to conditions: 300 μM; full inflammation (4 h and 14 h); one donor. How it is done: FIG. 16—Glycerophosphoinositol inhibits the release of cytokines. Human monocytes were purified from one donor and treated according to the in vitro model of human inflammation, previously described, in absence (blue line) or in presence (red line) of 300 μM glycerophosphoinositol. In detail, glycerophosphoinositol was added to cultured cells 20 minutes before LPS, IL-10 and TGF-β, that is, again after each wash. The growth medium was collected at time 4 h, 14 h, 24 h, 48 h; growth medium from freshly isolated monocytes was considered as control at time 0 h. The levels of cytokines Interleukin 1β (IL-1β), Tumor necrosis factor α (TNFα) and Interleukin-6 (IL-6) in the supernatants were measured by enzyme-linked immunosorbent assay (ELISA kit, R&D System) according to manufacturer's protocol. An increased release of these cytokines was observed during the full inflammation (time 4 h and 14 h) as expected. […]
Extracellular levels of IL-1β, TNFα and IL-6 were measured by enzyme-linked immunosorbent assay (ELISA) from R&D System. […] Then the recovered supernatants were loaded onto plates according to manufacturer's protocol and the concentration of the protein was assessed spectrophotometrically.

Assay [1] deals with interleukin 1β (IL-1β) gene expression. Put plainly: In vitro model of human inflammation: real-time PCR of IL-1β. The following applies: 300 μM; 4 h, 14 h, 24 h, 48 h; effect mainly at 4 h and 14 h; one donor, preliminary. How it is done:
(§1) FIG. 15—Glycerophosphoinositol modulates the kinetic transcriptional profile of genes involved in the regulation of inflammatory response. Human monocytes were purified from one donor and treated according to the in vitro model of human inflammation, previously described, in absence (blue line) or in presence (red line) of 300 μM glycerophosphoinositol. In detail glycerophosphoinositol was added to cells in culture 20 minutes before LPS, IL-10 and TGF-β, that is, again after each wash. Samples were collected at time 4 h, 14 h, 24 h, 48 h; freshly isolated monocytes have been considered as control at time 0 h. Total RNA was extracted from cells by RNeasy kit (Qiagen) and reverse-transcribed to cDNA (QuantiTect Reverse Transcription kit, Qiagen). […] Each sample was measured in triplicate and data were analyzed with Pfaffl methods for comparing relative expression data. The measurement of mRNA expression was expressed as fold-increase over control (time 0 h). […]
(§2) Total RNA was extracted with RNeasy kit (Qiagen) according to the manufacturer's instructions. Both integrity and quality of total RNA were checked by agarose gel electrophoresis and the concentration of each RNA sample was assessed spectrophotometrically. Total RNAs were reverse-transcribed to cDNA (QuantiTect Reverse Transcription kit, Qiagen) with oligo-dT and random primers, according to manufacturer's protocol. […]
On the technique in general: Quantitative PCR measures a nucleic acid by following its amplification.

The subject of assay [2] is Interleukin-1 receptor α (IL-1Rα) gene expression. Put plainly: In vitro model of human inflammation: real-time PCR of IL-1Rα. The following applies: 300 μM; 4 h, 14 h, 24 h, 48 h; one donor, preliminary. The protocol: as §1, §2
Assay [3] deals with interleukin-1 receptor II (IL-1RII) gene expression. Nature of the assay: In vitro model of human inflammation: real-time PCR of IL-1RII. As to conditions: 300 μM; 4 h, 14 h, 24 h, 48 h; one donor, preliminary. The protocol:
as §1, §2

For the molecule `O=P(O)(OCC(O)CO)OC1C(O)C(O)C(O)C(O)C1O` (stereo not shown) [GroPIns, glycerophosphoinositol], the “amount of IL-1β in the supernatants” value in the assay with Interleukin 1β (IL-1β) is “significantly reduced the amount of these cytokines in the supernatants”. The “IL-1β mRNA expression” value in assay [1] is recorded as “hampered the expression”. The “IL-1Rα mRNA expression” value in assay [2] is “favoured the expression”. For the same molecule, the “IL-1RII mRNA expression” value in assay [3] is given as “favoured the expression”.

Values taken from patent publication US9351983B2, “Use of glycerophosphoinositols for the treatment of septic shock” (CONSIGLIO NAZIONALE DELLE RICERCHE, priority 2012, dated 2016).
